ChEMBL document CHEMBL4043168, “The design and SAR of a novel series of 2-aminopyridine based LRRK2 inhibitors” (Bioorg Med Chem Lett, 2017)
Values after ≈ are worked out from the molar mass of the structure shown.

How the values were obtained:
[1] = biological target: Calcium/calmodulin-dependent protein kinase type II subunit delta (Homo sapiens) (UniProt Q13557); test: Inhibition of CaMK2d labeling at conserved Lys2 (DLKPENLLLASK) in human PBMC at 1 uM
[2] = biological target: Inhibitor of nuclear factor kappa-B kinase subunit beta (Homo sapiens) (UniProt O14920); test: Inhibition of IKKb conserved Lys2 (DLKPENIVLQQGEQR) in human PBMC at 0.1 uM
[3] = biological target: Mitogen-activated protein kinase kinase kinase 15 (Homo sapiens) (UniProt Q6ZN16); test: Inhibition of MAP3K15 conserved Lys1 (IAIKEIPER) in human PBMC at 0.1 uM
[4] = biological target: Tyrosine-protein kinase JAK2 (Homo sapiens) (UniProt O60674); test: Inhibition of JAK2 domain2 activation Loop (IGDFGLTKVLPQDKEYYK) in human PBMC at 1 uM
[5] = biological target: Serine/threonine-protein kinase Chk2 (Homo sapiens) (UniProt O96017); test: Inhibition of CHK2 labeling at conserved Lys2 (DLKPENVLLSSQEEDCLIK) in human PBMC at 1 uM
[6] = biological target: Glycogen synthase kinase-3 beta (Homo sapiens) (UniProt P49841); test: Inhibition of GSK3B conserved Lys2 (DIKPQNLLLDPDTAVLK) in human PBMC at 0.1 uM
[7] = biological target: Protein kinase C alpha type (Homo sapiens) (UniProt P17252); test: Inhibition of PKCa conserved Lys2 (DLKLDNVMLDSEGHIK) in human PBMC at 1 uM
[8] = biological target: Kinase suppressor of Ras 2 (Homo sapiens) (UniProt Q6VAB6); test: Inhibition of KSR2 activation Loop (SKNVFYDNGK) in human PBMC at 0.1 uM
[9] = biological target: Cyclin-dependent kinase 5 (Homo sapiens) (UniProt Q00535); test: Inhibition of CDK5 labeling at conserved Lys2 (DLKPQNLLINR) in human PBMC at 0.1 uM
[10] = biological target: Mitogen-activated protein kinase kinase kinase 20 (Homo sapiens) (UniProt Q9NYL2); test: Inhibition of ZAK conserved Lys1 (WISQDKEVAVKK) in human PBMC at 0.1 uM
[11] = biological target: Myosin light chain kinase, smooth muscle (Homo sapiens) (UniProt Q15746); test: Inhibition of smMLCK conserved Lys2 (QGIVHLDLKPENIMCVNK) in human PBMC at 0.1 uM
[12] = biological target: Cyclin-dependent kinase 1 (Homo sapiens) (UniProt P06493); test: Inhibition of CDC2 labeling at conserved Lys2 (DLKPQNLLIDDKGTIK) in human PBMC at 0.1 uM
[13] = biological target: Mitogen-activated protein kinase kinase kinase 1 (Homo sapiens) (UniProt Q13233); test: Inhibition of MAP3K1 conserved Lys2 (DVKGANLLIDSTGQR) in human PBMC at 0.1 uM
[14] = Aqueous solubility of the compound in pH 7.4; type: physicochemical; settings: aqueous medium

Myosin light chain kinase, smooth muscle (Homo sapiens), sequence (Q15746 whole entry): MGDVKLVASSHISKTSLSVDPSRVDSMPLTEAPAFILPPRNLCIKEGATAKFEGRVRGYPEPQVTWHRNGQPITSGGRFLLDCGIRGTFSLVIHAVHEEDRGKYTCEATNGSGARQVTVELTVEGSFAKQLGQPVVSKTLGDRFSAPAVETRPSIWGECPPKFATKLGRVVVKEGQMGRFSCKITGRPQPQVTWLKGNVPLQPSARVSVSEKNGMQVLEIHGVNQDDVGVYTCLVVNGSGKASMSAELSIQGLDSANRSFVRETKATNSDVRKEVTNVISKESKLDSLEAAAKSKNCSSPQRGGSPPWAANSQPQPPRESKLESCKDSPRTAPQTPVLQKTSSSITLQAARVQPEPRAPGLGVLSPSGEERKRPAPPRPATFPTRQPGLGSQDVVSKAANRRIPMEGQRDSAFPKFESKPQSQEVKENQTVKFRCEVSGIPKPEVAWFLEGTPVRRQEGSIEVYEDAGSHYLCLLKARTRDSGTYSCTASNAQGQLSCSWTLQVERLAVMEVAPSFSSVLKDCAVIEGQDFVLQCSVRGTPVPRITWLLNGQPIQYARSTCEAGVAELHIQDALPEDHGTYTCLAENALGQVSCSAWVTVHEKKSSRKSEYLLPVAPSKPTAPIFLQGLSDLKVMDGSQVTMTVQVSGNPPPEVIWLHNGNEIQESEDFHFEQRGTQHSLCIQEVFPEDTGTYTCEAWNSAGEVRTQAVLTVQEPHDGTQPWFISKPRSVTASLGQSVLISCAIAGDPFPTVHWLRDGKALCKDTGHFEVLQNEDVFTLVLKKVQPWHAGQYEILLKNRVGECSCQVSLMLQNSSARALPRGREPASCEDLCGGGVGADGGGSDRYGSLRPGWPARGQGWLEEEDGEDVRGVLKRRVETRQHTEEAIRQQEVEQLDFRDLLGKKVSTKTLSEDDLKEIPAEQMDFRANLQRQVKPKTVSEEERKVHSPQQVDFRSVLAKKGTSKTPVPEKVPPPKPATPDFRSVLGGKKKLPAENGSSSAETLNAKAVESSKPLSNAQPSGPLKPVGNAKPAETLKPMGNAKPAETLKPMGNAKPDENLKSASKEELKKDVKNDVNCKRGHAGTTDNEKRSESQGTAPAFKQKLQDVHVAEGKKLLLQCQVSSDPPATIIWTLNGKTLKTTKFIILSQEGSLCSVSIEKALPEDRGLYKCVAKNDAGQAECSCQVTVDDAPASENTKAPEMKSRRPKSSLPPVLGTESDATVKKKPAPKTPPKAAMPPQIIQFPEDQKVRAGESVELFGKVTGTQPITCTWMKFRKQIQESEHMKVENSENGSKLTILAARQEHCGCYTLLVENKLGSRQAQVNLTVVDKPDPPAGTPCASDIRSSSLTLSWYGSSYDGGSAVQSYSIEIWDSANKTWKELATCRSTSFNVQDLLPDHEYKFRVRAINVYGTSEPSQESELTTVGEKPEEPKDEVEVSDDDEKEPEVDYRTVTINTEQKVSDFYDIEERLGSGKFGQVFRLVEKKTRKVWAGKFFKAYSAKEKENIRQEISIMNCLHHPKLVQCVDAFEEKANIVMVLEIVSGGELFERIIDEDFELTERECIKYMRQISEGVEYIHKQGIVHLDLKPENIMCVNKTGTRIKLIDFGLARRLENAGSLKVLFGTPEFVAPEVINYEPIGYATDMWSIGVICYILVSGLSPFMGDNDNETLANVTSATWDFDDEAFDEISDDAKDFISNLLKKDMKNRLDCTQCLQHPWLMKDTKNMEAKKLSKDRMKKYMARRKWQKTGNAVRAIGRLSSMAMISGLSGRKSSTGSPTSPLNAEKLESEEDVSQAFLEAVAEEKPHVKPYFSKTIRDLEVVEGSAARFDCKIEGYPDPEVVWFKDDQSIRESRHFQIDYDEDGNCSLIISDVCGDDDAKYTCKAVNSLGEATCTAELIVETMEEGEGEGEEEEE
Mitogen-activated protein kinase kinase kinase 1 (Homo sapiens), sequence (Q13233 whole entry): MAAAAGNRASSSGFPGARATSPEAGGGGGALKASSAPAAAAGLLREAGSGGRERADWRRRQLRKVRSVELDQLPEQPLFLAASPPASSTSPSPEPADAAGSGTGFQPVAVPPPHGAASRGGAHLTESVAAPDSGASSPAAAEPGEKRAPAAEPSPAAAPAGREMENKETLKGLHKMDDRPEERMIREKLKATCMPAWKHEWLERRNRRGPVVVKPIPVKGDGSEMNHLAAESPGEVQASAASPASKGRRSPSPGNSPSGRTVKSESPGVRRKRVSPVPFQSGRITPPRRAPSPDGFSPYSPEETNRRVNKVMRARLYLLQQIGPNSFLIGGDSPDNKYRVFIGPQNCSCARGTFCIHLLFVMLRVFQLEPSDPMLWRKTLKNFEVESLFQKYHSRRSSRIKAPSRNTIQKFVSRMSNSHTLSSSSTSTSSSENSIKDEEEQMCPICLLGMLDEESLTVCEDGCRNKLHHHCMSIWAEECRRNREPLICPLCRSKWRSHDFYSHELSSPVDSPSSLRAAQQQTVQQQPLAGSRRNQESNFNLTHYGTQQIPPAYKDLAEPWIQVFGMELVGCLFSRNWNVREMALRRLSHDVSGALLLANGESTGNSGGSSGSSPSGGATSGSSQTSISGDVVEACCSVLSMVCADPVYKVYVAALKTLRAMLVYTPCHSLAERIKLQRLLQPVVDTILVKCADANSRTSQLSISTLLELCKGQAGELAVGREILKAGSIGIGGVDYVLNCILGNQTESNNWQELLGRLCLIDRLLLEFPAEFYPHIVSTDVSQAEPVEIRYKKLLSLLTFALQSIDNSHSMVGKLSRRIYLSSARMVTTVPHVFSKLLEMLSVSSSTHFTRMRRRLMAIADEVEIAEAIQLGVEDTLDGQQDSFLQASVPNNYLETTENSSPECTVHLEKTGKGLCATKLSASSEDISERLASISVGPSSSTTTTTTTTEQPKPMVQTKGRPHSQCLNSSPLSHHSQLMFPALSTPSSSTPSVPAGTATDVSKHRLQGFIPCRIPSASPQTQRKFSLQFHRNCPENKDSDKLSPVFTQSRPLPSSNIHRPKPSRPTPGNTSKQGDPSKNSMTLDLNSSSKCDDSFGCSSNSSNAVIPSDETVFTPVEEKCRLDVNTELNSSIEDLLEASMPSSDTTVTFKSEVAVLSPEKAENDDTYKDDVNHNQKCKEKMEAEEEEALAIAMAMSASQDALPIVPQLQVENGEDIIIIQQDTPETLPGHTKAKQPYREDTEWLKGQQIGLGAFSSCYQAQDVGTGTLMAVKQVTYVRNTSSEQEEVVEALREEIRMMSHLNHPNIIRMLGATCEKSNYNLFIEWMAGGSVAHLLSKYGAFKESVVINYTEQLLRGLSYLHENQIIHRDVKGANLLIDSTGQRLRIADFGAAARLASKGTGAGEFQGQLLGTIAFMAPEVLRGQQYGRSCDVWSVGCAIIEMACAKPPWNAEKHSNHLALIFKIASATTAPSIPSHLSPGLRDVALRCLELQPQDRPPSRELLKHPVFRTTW
Calcium/calmodulin-dependent protein kinase type II subunit delta (Homo sapiens), sequence (Q13557 whole entry): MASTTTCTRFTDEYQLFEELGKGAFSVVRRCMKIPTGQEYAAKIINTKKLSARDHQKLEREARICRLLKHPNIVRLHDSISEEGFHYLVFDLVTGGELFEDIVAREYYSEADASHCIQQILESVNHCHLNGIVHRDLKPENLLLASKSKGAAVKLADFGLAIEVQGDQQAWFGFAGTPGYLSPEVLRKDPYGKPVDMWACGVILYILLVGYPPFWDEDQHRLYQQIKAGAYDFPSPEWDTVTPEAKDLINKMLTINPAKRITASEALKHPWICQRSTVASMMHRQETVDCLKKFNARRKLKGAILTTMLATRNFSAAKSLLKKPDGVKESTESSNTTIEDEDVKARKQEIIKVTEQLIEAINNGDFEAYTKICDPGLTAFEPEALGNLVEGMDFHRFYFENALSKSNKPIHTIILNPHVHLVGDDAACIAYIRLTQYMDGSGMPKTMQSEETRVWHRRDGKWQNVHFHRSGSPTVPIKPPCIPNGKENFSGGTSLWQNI
Mitogen-activated protein kinase kinase kinase 20 (Homo sapiens), sequence (Q9NYL2 2-800 limits assumed): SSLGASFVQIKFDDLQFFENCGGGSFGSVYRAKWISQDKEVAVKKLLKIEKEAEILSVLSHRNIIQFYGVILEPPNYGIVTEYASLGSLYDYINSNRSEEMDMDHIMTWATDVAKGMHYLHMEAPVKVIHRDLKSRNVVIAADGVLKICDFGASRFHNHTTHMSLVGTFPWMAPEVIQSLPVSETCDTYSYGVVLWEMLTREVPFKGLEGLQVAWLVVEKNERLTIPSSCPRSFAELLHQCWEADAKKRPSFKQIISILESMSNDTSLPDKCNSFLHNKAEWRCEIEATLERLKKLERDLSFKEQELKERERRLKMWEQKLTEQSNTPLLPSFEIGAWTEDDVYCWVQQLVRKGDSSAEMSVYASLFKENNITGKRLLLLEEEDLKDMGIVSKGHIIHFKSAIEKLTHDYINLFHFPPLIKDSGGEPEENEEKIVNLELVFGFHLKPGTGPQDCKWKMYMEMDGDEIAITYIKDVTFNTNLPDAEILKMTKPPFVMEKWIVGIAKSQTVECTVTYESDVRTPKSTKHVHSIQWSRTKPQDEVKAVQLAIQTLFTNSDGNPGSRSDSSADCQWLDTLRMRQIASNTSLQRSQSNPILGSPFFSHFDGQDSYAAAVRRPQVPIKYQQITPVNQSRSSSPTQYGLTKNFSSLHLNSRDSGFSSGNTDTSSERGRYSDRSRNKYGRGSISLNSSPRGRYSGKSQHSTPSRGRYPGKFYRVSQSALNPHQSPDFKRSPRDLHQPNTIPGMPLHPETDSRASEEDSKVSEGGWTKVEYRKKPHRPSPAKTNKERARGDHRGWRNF
Cyclin-dependent kinase 5 (Homo sapiens), sequence (Q00535 whole entry, looked up): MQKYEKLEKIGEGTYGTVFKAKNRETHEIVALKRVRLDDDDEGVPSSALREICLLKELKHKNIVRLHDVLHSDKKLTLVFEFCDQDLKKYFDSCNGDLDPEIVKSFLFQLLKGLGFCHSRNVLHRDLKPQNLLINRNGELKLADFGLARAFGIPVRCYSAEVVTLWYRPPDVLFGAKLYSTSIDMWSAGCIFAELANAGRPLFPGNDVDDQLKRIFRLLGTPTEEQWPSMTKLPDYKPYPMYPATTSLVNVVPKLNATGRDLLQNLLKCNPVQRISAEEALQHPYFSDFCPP

CC(C)n1cc(-c2cc(-c3ccc(CN4CCOCC4)cc3)cnc2N)nn1
inhibition [1]: -0.4%
inhibition [2]: 1.5%
inhibition [3]: -0.5%
inhibition [4]: 5.2%
inhibition [5]: -7.8%
inhibition [6]: -10%
inhibition [7]: -7.4%
inhibition [8]: 20.4%
inhibition [9]: -3.3%
inhibition [10]: 11.3%
inhibition [11]: 11.3%
inhibition [12]: 14.4%
inhibition [13]: 29.6%
solubility [14]: 36 µg/mL (≈ 95.1 µM)
